Measurements taken from US20060105061A1, “Galenical composition” (priority 2004, published 2006).
Read-outs that look alike come from different tables or passages of the source.

How the values were obtained:
lysosomal fractions [1] = assay: Oxidative damage tests of lysosomes: enzyme release with AAPH or AMVN radical generators; type: biochemical, Wistar rats; settings: 10^−4M, ± SE
Method: (§1) Preparation of lysosomal fractions: After homogenizing in 9 volumes of 0.3 M sucrose, the liver was centrifuged at 450×g for 10 min. The supernatants were again centrifuged at 3500×g for 10 min, and the lysosome-containing supernatant was centrifuged at 10000×g for 10 min. The pellets were washed and centrifuged at 10000×g for 10 min, and resuspended in the sucrose buffer to a protein concentration of 15 mg/ml.
Oxidative damage tests of lysosomes: Assays for the release of acid phosphatase and β-N-acetylglucosaminidase from lysosomes were carried out by incubating lysosomal suspensions in the presence of test compounds. […] For this experiment, lysosomal suspensions were preincubated in the presence of 1 mM of the test compounds for 30 min and centrifuged at 12000×g for 10 min. Then the pellets were washed in 0.15 M KCl-5 mM Tris buffer (pH 7.4), centrifuged and re-suspended in 0.1M acetate buffer (pH 5.5).

normal hepatocytes = assay: Metal-induced lipid peroxidation (MDA) in normal cultured hepatocytes; type: cell-based, Wistar rats; settings: for IC50: Rattus norvegicus, Hepatocyte, normal hepatocytes, 100 μM, read-out: IC50 of lipid peroxidation inhibition
Description: (§2) Isolation and culture of hepatocytes: Male Wistar rats weighing 180 to 210 g were fed with standard chow and water ad libitum. Hepatocytes were isolated by collagenase perfusion method as described by Wolkoff et al. (J Clin Invest 1987; 79: 1259-1268). Briefly, the liver was perfused with collagenase type IV (Sigma Chemical, St. Louis, Mo., USA) and isolated hepatocytes were suspended in culture medium consisting of Waymouth's 752/1 (Gibco, Grand Island, N.Y., USA) containing 5% heat-inactivated fetal bovine serum, 2.5 mM CaCl2, 5 μg/mL bovine insulin (Sigma), 100 U/mL penicillin and 0.1 mg/mL streptomycin. The isolated cells were further fractionated on Percoll density gradients to obtain a viability higher than 98%, as ascertained by trypan blue. Approximately 1.5×10^6 cells in 3 mL or approximately 5.0×10^6 cells in 10 mL in individual 60- or 100-mm diameter Lux culture dishes were placed in an incubator in an atmosphere of […] at 37° C., and then separately cultured. After a 9 hr incubation, the monolayer of hepatocytes was cultured for an additional 12 hr in the medium containing 1.0 mM α-linolenic acid (LNA)-bovine serum albumin (BSA). Seventy percent or more of added LNA was adsorbed by cultured cells after incubation.
(§3) After incubation for 6 hr, the medium was separated. Malonyldialdehyde (MDA) in the medium was assessed by a slight modification of the Uchiyama and Mihara method (Anal Biochem 1978; 86: 271-278). Briefly, to 0.1 ml of the medium in a 12 ml glass tube, 3 ml of 1% […] and 1 ml of 0.67% thiobarbituric acid were added and heated at 100° C. for 45 min. After cooling in ice water, 4 ml of n-butanol was added and the resulting mixture was shaken and then centrifuged to separate the butanol layer. The fluorescence intensity in the butanol layer was assayed at the excitation and emission wavelengths of 515 and 553 nm, respectively. The auto-oxidation products of fatty acid in the medium were within 0.3 nmol and were used as blank. Dimethyl sulfoxide (20 μl) was diluted in 2000 μl of the culture medium, including control cultures of metal ions only in the absence of the test compounds and the final concentration of 1% dimethyl sulfoxide had no measurable effect on lipid peroxidation in basal cultured hepatocytes.

lysosomal fractions [2] = assay: Lysosome fragility test: LDH leakage and β-galactosidase release with metal ions; type: biochemical, Wistar rats; settings: YHK at the higher concentration, p<0.05
Method: as §1
Lysosome fragility test: The fraction was incubated with the test compound and each of metal ions and β-galactosidase activity was measured in accordance with the method of Olsson et al. (Anal Cell Pathol 1990; 2: 179-188), using 4-methylumbelliferyl-β-galactosidase as a substrate. The results were expressed as percentage of total β-galactosidase released. Lactate dehydrogenase leakage was also measured in the culture medium in accordance with the method of Hillaire et al. (Hepatology 1995; 22: 82-87).

LNA-loaded hepatocytes = assay: Metal-induced lipid peroxidation (MDA) in LNA-loaded hepatocytes; type: cell-based, Wistar rats; settings: Rattus norvegicus, Hepatocyte, LNA-loaded cells, 100 μM, read-out: IC50 of lipid peroxidation inhibition
Description: as §2
as §3, with “Dimethyl sulfoxide (20 μl) was diluted in 2000 μl of the culture medium, including control cultures of metal ions only in the absence of the test compounds and the final concentration of 1% dimethyl sulfoxide had no measurable effect on lipid peroxidation in basal cultured hepatocytes.” left out

## COc1cc(C2Oc3cc([C@H]4Oc5cc(O)cc(O)c5C(=O)[C@@H]4O)ccc3OC2CO)ccc1O (stereo partly drawn) [Sylibin, sylibin]
Lysosomal fractions [1]; AAPH-induced release
  Acid phosphatase release, enzyme activity: 51.9 ± 5.6 % of control
  β-N-acetylglucosaminidase release, enzyme activity: 54.6 ± 4.7 % of control
Lysosomal fractions [1]; AMVN-induced release
  Acid phosphatase release, enzyme activity: 83.9 ± 10.4 % of control
  β-N-acetylglucosaminidase release, enzyme activity: 77.3 ± 7.4 % of control
Normal hepatocytes; CuSO4-induced
  IC50: 7.3 ± 0.3 µM
Normal hepatocytes; FeSO4-induced
  IC50: 18.9 ± 3.2 µM
Normal hepatocytes; VCl3-induced
  IC50: 10.8 ± 1.2 µM
Normal hepatocytes; metal catalysts, up to 6 hr, p<0.05
  MDA generation in the medium: significantly decreased
Lysosomal fractions [2]
  β-galactosidase release from lysosomes: significantly decreased
LNA-loaded hepatocytes; CuSO4-induced
  IC50: 16.8 ± 1.5 µM
LNA-loaded hepatocytes; FeSO4-induced
  IC50: 79.9 ± 9.2 µM
LNA-loaded hepatocytes; VCl3-induced
  IC50: 17.3 ± 1.2 µM
